Test results taken from patent US8815852B2, “Carbamoyloxy arylalkan arylpiperazine analgesics” (SK Biopharmaceuticals Co., Ltd., priority 2007, dated 2014).

Tested on: male ICR mouse
Assay: Acetic acid-induced writhing test in mouse
Type: in vivo
Details: Mus musculus, po, 1 h, at 10 po (method: 10 mg/kg oral, 1 hour before acetic acid); read-out: AA Writhing: Suppression ratio of Pain response
Method: 2. Acetic Acid-Induced Writhing Test in Mouse
An acetic acid-induced writhing test is one of models for measuring an analgesic effect of drugs. A test material dissolved in a suitable vehicle was orally administered to a male ICR mouse weighing 30 to 35 g at an amount of 10 mg/kg. After 1 hour of the oral administration, […] of an aqueous 0.8% acetic acid solution was intraperitoneally injected into the male ICR mouse to induce the abdominal pain of the male ICR mouse. Right after the administration of acetic acid, the male ICR mouse was put into an empty cage, and the number of writhing behaviors of the mice was counted for 10 minutes. The term “writhing represents a reflex action in which the mouse overtly extends its abdomen by stretching its hind legs due to the abdominal pain. The analgesic effect of the test material is represented by the ‘suppression ratio of pain response’ {[(Writhing number of Vehicle-administered group−Writhing number of Test material-administered group)/(Writhing number of Vehicle-administered group)]×100%} or 50% of Effective amount (ED50 (median effective dose); an amount of test material that is required to suppress 50% of pain behaviors) of Test material. The ED50 (median effective dose) was determined by calculating the suppression ratio of pain response in at least three doses of test materials and subjecting to the linear regression.

Structure (SMILES) | inhibition in vivo at 10 mg/kg
COc1ccc(N2CCN(CCC(OC(N)=O)c3ccc(Cl)cc3Cl)CC2)cc1 (stereo not drawn) [Example 58, Carbamic acid 1-(2,4-dichloro-phenyl)-3-[4-(4-methoxy-phenyl)-piperazin-1-yl]-propyl ester] | 16%
COc1ccc(N2CCN(CCC(OC(N)=O)c3ccccc3C)CC2)cc1 (stereo not drawn) [Example 59, Carbamic acid 3-[4-(4-methoxy-phenyl)-piperazin-1-yl]-1-o-tolyl-propyl ester] | 48%
COc1ccc(N2CCN(CCC(OC(N)=O)c3ccc(C)cc3C)CC2)cc1 (stereo not drawn) [Example 60, Carbamic acid 1-(2,4-dimethyl-phenyl)-3-[4-(4-methoxy-phenyl)-piperazin-1-yl]-propyl ester] | 62%
COc1ccc(N2CCN(CCC(OC(N)=O)c3ccc(C)c(C)c3)CC2)cc1 (stereo not drawn) [Example 61, Carbamic acid 1-(3,4-dimethyl-phenyl)-3-[4-(4-methoxy-phenyl)-piperazin-1-yl]-propyl ester] | 58%
COc1ccc(N2CCN(CCC(OC(N)=O)c3cc(C)ccc3C)CC2)cc1 (stereo not drawn) [Example 62, Carbamic acid 1-(2,5-dimethyl-phenyl)-3-[4-(4-methoxy-phenyl)-piperazin-1-yl]-propyl ester] | 62%
COc1ccc(N2CCN(CCC(OC(N)=O)c3ccc(Cl)c(C(F)(F)F)c3)CC2)cc1 (stereo not drawn) [Example 63, Carbamic acid 1-(4-chloro-3-trifluoromethyl-phenyl)-3-[4-(4-methoxy-phenyl)-piperazin-1-yl]-propyl ester] | 46%
COc1ccc(N2CCN(CCC(OC(N)=O)c3ccccc3[N+](=O)[O-])CC2)cc1 (stereo not drawn) [Example 64, Carbamic acid 3-[4-(4-methoxy-phenyl)-piperazin-1-yl]-1-(2-nitro-phenyl)-propyl ester] | 59%
COc1ccc(N2CCN(CCC(OC(N)=O)c3cccc([N+](=O)[O-])c3)CC2)cc1 (stereo not drawn) [Example 65, Carbamic acid 3-[4-(4-methoxy-phenyl)-piperazin-1-yl]-1-(3-nitro-phenyl)-propyl ester] | 39%
COc1ccc(N2CCN(CCC(OC(N)=O)c3ccc(C(F)(F)F)cc3)CC2)cc1 (stereo not drawn) [Example 66, Carbamic acid 3-[4-(4-methoxy-phenyl)-piperazin-1-yl]-1-(4-trifluoromethyl-phenyl)-propyl ester] | 95%
COc1ccc(N2CCN(CCC(OC(N)=O)c3ccc4c(c3)OCO4)CC2)cc1 (stereo not drawn) [Example 67] | 57%
COc1ccc(N2CCN(CCC(OC(N)=O)c3cccc(C(F)(F)F)c3)CC2)cc1 (stereo not drawn) [Example 68, Carbamic acid 3-[4-(4-methoxy-phenyl)-piperazin-1-yl]-1-(3-trifluoromethyl-phenyl)-propyl ester] | 48%
COc1ccc(N2CCN(CCC(OC(N)=O)c3ccc(Cl)c(Cl)c3)CC2)cc1 (stereo not drawn) [Example 70, Carbamic acid 1-(3,4-dichloro-phenyl)-3-[4-(4-methoxy-phenyl)-piperazin-1-yl]-propyl ester] | 51%
COc1ccc(N2CCN(CCC(OC(N)=O)c3ccc(Cl)cc3)CC2)cc1 (stereo not drawn) [Example 71, Carbamic acid 1-(4-chloro-phenyl)-3-[4-(4-methoxy-phenyl)-piperazin-1-yl]-propyl ester] | 61%
NC(=O)OC(CCN1CCN(c2ccc(O)cc2)CC1)c1ccc(Cl)c(C(F)(F)F)c1 (stereo not drawn) [Example 72, Carbamic acid 1-(4-chloro-3-trifluoromethyl-phenyl)-3-[4-(4-hydroxy-phenyl)-piperazin-1-yl]-propyl ester] | 53%
NC(=O)OC(CCN1CCN(c2ccc(O)cc2)CC1)c1ccc(Cl)c(Cl)c1 (stereo not drawn) [Example 73, Carbamic acid 1-(3,4-dichloro-phenyl)-3-[4-(4-hydroxy-phenyl)-piperazin-1-yl]-propyl ester] | 55%
CCOc1ccccc1N1CCN(CCC(OC(N)=O)c2ccc(F)cc2)CC1 (stereo not drawn) [Example 74, Carbamic acid 3-[4-(2-ethoxy-phenyl)-piperazin-1-yl]-1-(4-fluoro-phenyl)-propyl ester] | 44%
COc1ccc(Cl)cc1N1CCN(CCC(OC(N)=O)c2ccc(F)cc2)CC1 (stereo not drawn) [Example 75, Carbamic acid 3-[4-(5-chloro-2-methoxy-phenyl)-piperazin-1-yl]-1-(4-fluoro-phenyl)-propyl ester] | 14%
NC(=O)OC(CCN1CCN(c2ccc(Cl)c(Cl)c2)CC1)c1ccc(F)cc1 (stereo not drawn) [Example 76, Carbamic acid 3-[4-(3,4-dichloro-phenyl)-piperazin-1-yl]-1-(4-fluoro-phenyl)-propyl ester] | 50%
COc1ccc(N2CCN(CC3CCc4ccccc4C3OC(N)=O)CC2)cc1 (stereo not drawn) [Example 82, Carbamic acid 2-[4-(4-methoxy-phenyl)-piperazin-1-ylmethyl]-1,2,3,4-tetrahydro-naphthalen-1-yl ester] | 55%
NC(=O)OC(CCN1CCN(c2ccc(OCc3ccccc3)cc2)CC1)c1ccccc1 (stereo not drawn) [Example 85, Carbamic acid 3-[4-(4-benzyloxyphenyl)-piperazin-1-yl]-1-phenyl-propyl ester] | 58%
NC(=O)OC(CCN1CCN(c2ccc(OC3CCCC3)cc2)CC1)c1ccccc1 (stereo not drawn) [Example 87, Carbamic acid 3-[4-(4-cyclopentyloxy-phenyl)-piperazin-1-yl]-1-phenyl-propyl ester] | 58%
CC(C)(C)C(=O)Oc1ccc(N2CCN(CCC(OC(N)=O)c3ccc(F)cc3)CC2)cc1 (stereo not drawn) [Example 89, 1-(4-fluorophenyl)-3-(4-(4-(pivaloyloxy)phenyl)piperazin-1-yl)propyl carbamate] | 63%
NC(=O)OC(CCN1CCN(c2ccc(OC(=O)OCc3ccccc3)cc2)CC1)c1ccc(F)cc1 (stereo not drawn) [Example 91, Carbonic acid benzyl ester 4-{4-[3-carbamoyloxy-3-(4-fluoro-phenyl)-propyl]-piperazin-1-yl}-phenyl ester] | 45%
COc1ccc(N2CC(C)N(CC[C@@H](OC(N)=O)c3ccccc3)C(C)C2)cc1 (stereo partly drawn) [Example 101, Carbamic acid (R)-3-[4-(4-methoxy-phenyl)-2,6-dimethyl-piperazin-1-yl]-1-phenyl-propyl ester] | 48%
COc1ccc(N2CCN(CCC3OC(=O)Nc4ccccc43)CC2)cc1 (stereo not drawn) [Example 107, 4-{2-[4-(4-methoxy-phenyl)-piperazin-1-yl]-ethyl}-1,4-dihydro-benzo[d][1,3]oxazin-2-one] | 35%
COc1ccc(N2CCN(C(C)CC(OC(N)=O)c3ccccc3)CC2)cc1 (stereo not drawn) [Example 108, Carbamic acid 3-[4-(4-methoxy-phenyl)-piperazin-1-yl]-1-phenyl-butyl ester] | 83.5%
CC(CC(OC(N)=O)c1ccccc1)N1CCN(c2ccc(Cl)cc2)CC1 (stereo not drawn) [Example 109, Carbamic acid 3-[4-(4-chloro-phenyl)-piperazin-1-yl]-1-phenyl-butyl ester] | 84%
CC(CC(OC(N)=O)c1ccccc1)N1CCN(c2ccc([N+](=O)[O-])cc2)CC1 (stereo not drawn) [Example 110, Carbamic acid 3-[4-(4-nitro-phenyl)-piperazin-1-yl]-1-phenyl-butyl ester] | 17%

Same assay, conditions: Mus musculus; ip; unit not given (method doses in mg/kg); read-out: AA Writhing: ED50

Structure (SMILES) | ED50
CC(=O)Oc1ccc(N2CCN(CCC(OC(N)=O)c3ccc(F)cc3)CC2)cc1 (stereo not drawn) [Example 92, Acetic acid 4-{4-[3-carbamoyloxy-3-(4-fluoro-phenyl)-propyl]-piperazin-1-yl}-phenyl ester] | 0.22 mg/kg

Same assay, conditions: Mus musculus; po; unit not given (method doses in mg/kg); read-out: AA Writhing: ED50

Structure (SMILES) | ED50
COc1ccc(N2CCN(CCC(OC(N)=O)c3ccc(F)cc3)CC2)cc1 (stereo not drawn) [Example 77, Carbamic acid 1-(4-fluoro-phenyl)-3-[4-(4-methoxy-phenyl)-piperazin-1-yl]-propyl ester] | 12.4 mg/kg
CC(=O)Oc1ccc(N2CCN(CCC(OC(N)=O)c3ccccc3)CC2)cc1 (stereo not drawn) [Example 86, Acetic acid 4-[4-(3-carbamoyloxy-3-phenyl-propyl)-piperazin-1-yl]-phenyl ester] | 7.52 mg/kg
NC(=O)OC(CCN1CCN(c2ccc(O)cc2)CC1)c1ccc(F)cc1 (stereo not drawn) [Example 88, Carbamic acid 1-(4-fluoro-phenyl)-3-[4-(4-hydroxy-phenyl)-piperazin-1-yl]-propyl ester] | 7.24 mg/kg
CCOC(=O)Oc1ccc(N2CCN(CCC(OC(N)=O)c3ccc(F)cc3)CC2)cc1 (stereo not drawn) [Example 90, Carbonic acid 4-{4-[3-carbamoyloxy-3-(4-fluoro-phenyl)-propyl]-piperazin-1-yl}-phenyl ethyl ester] | 23.4 mg/kg
CC(=O)Oc1ccc(N2CCN(CCC(OC(N)=O)c3ccc(F)cc3)CC2)cc1 (stereo not drawn) [Example 92, Acetic acid 4-{4-[3-carbamoyloxy-3-(4-fluoro-phenyl)-propyl]-piperazin-1-yl}-phenyl ester] | 5.66 mg/kg
NC(=O)O[C@H](CCN1CCN(c2ccc(O)cc2)CC1)c1ccccc1 [Example 105, (R)-carbamic acid 3-[4-(4-hydroxy-phenyl)-piperazin-1-yl]-1-phenyl-propyl ester] | 6.49 mg/kg

Same assay, conditions: at 10 po (method: 10 mg/kg oral, 1 hour before acetic acid)

Structure (SMILES) | AA Writhing: Suppression ratio of Pain response
COc1ccc(N2CCN(CCC(OC(N)=O)c3ccccc3F)CC2)cc1 (stereo not drawn) [Example 69, Carbamic acid 1-(2-fluoro-phenyl)-3-[4-(4-methoxy-phenyl)-piperazin-1-yl]-propyl ester] | 57%
